Assay results taken from patent US20080009418A1, “Selective Inhibitors” (Alchemia LTD., priority 2004, published 2008).

Key:
[1] = target: T1, Human melanocortin (MC5) (Homo sapiens, UniProt P33032); assay: Radioligand binding, human melanocortin MC5 membranes, FlashPlate, [125I]-NDP-αMSH; settings: compound at 10 μM; for A5: inhibition of radioligand binding: [125I]-NDP-αMSH; for A5 radioligand binding inhibition: human melanocortin MC5 membranes
T1 construct: purchased Perkin Elmer Biosignal
Procedure, shortened: (§1)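 Cloned human receptor membranes were coated onto FlashPlate wells and incubated with radioligand and compound (added from a 0.5 mM DMSO daughter plate) for 1 hour at room temperature in the dark. Scintillation counting gave percent inhibition, with DMSO defining total and reference ligand defining non-specific binding.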

[2] = target: T2, Human opioid (ORL1) (Homo sapiens, UniProt P41146); assay: Radioligand binding, human opioid ORL1 membranes, FlashPlate, [125I]-Nociceptin; settings: compound at 10 μM; for A10: inhibition of radioligand binding: [125I]-Nociceptin
T2 construct: purchased Perkin Elmer Biosignal
T2 sequence (P41146 whole entry): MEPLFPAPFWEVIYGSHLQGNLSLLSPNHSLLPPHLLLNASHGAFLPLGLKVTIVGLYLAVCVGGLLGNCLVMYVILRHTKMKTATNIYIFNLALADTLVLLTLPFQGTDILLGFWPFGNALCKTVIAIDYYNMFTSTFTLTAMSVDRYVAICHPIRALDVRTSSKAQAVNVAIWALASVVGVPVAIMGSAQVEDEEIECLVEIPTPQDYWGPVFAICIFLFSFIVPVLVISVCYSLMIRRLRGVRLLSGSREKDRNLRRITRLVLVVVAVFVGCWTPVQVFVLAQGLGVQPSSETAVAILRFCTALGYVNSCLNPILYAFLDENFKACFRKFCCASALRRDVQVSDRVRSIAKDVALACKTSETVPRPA
Procedure, shortened: as §1

[3] = target: T3, Human δ-opioid (DOP) (Homo sapiens, UniProt P41143); assay: Radioligand binding, human δ-opioid (DOP) membranes, FlashPlate, [3H]-Bremazocine; settings: compound at 10 μM; for A1: inhibition of radioligand binding: [3H]-Bremazocine; for A1 radioligand binding inhibition: human δ-opioid (DOP) membranes
T3 construct: purchased Perkin Elmer Biosignal
T3 sequence (P41143 whole entry): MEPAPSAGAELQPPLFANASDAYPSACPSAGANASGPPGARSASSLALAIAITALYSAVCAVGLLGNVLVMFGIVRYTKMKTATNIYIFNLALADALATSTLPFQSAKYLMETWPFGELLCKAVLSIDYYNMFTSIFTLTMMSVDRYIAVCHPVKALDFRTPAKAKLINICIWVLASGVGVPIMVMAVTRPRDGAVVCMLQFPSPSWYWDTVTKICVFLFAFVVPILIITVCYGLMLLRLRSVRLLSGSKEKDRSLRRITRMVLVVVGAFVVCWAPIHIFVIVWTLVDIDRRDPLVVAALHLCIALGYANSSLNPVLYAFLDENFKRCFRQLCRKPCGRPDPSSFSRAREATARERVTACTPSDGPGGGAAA
Procedure, shortened: as §1

[4] = target: T4, Human Melanocortin (MC3) (Homo sapiens, UniProt P41968); assay: Radioligand binding, human melanocortin MC3 membranes, FlashPlate, [125I]-NDP-αMSH; settings: compound at 10 μM; for A3: inhibition of radioligand binding: [125I]-NDP-αMSH; for A3 radioligand binding inhibition: human melanocortin MC3 membranes
T4 construct: purchased Perkin Elmer Biosignal
T4 sequence (P41968 whole entry): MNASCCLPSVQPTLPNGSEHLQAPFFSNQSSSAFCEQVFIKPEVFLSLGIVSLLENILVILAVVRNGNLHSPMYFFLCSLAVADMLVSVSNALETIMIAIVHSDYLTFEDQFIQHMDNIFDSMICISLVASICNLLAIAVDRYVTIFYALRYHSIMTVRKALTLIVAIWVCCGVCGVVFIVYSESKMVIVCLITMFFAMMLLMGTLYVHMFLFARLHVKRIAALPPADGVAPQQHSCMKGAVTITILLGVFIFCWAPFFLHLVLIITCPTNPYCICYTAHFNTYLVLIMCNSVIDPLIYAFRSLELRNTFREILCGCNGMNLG
Procedure, shortened: as §1

[5] = target: T5, Human neurokinin (NK1) (Homo sapiens, UniProt P25103); assay: Radioligand binding, human neurokinin NK1 membranes, filtration, [125I]-Substance P; settings: compound at 10 μM; for A8: inhibition of radioligand binding: [125I]-Substance P; for A8 radioligand binding inhibition: human neurokinin NK1 membranes
T5 construct: purchased Perkin Elmer Biosignal
T5 sequence (P25103 whole entry): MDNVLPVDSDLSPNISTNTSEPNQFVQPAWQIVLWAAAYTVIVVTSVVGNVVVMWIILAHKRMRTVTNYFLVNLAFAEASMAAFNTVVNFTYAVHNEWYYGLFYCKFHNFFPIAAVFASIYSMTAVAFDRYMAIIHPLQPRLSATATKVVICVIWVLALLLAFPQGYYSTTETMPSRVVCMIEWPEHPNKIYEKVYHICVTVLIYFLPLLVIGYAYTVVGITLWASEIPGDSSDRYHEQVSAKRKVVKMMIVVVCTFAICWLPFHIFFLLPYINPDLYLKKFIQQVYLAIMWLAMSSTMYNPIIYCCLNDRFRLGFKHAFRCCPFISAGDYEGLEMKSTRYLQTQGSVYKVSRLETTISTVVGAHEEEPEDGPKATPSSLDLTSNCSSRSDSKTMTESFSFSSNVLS
Procedure, shortened: (§2)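 Percent inhibition of radioligand binding measured on recombinant human membranes: NK1 with [125I]-Substance P, KOP with [3H]-Diprenorphine. Incubation 1 h at room temperature, then harvest onto 0.3% PEI-soaked filters, cold Tris-HCl pH 7.4 washes and scintillation counting; non-specific binding from reference ligand wells.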

[6] = target: T6, Mouse urotensin (mUR2) (Mus musculus, UniProt Q8VIH9); assay: Radioligand binding, mouse urotensin mUR2 membranes, FlashPlate, [125I]-Urotensin II; settings: compound at 10 μM; for A11: inhibition of radioligand binding: [125I]-Urotensin II; for A11 radioligand binding inhibition: mouse urotensin mUR2 membranes
T6 construct: purchased Perkin Elmer Biosignal
T6 sequence (Q8VIH9 1-385): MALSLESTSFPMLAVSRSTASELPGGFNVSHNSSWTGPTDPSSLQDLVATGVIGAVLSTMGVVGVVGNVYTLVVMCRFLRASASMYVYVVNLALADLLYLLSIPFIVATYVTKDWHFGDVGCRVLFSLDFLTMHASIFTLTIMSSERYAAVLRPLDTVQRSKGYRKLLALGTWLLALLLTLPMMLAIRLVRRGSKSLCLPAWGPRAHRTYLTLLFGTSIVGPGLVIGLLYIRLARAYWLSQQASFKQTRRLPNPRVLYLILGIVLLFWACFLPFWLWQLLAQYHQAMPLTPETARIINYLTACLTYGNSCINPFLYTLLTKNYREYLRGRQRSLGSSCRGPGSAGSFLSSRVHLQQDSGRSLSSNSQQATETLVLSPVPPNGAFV
Procedure, shortened: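 Cloned mouse urotensin (mUR2) receptor membranes from Perkin Elmer Biosignal were immobilized in FlashPlate microplates using a proprietary coating. Each well got 19.5 μl buffer, then 0.5 μl of DMSO, reference ligand, or compound. Adding 5 μl of [125I]-Urotensin II, diluted to 5× final concentration in binding buffer, started binding. Plates were sealed with TopSeal-A and incubated 1 hour at room temperature in the dark. Wells were counted for 30 seconds each on a TopCount after a 60-second delay, and percentage inhibition was calculated.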

[7] = target: T7, Human Melanocortin (MC4) (Homo sapiens, UniProt P32245); assay: Radioligand binding, human melanocortin MC4 membranes, FlashPlate, [125I]-NDP-αMSH; settings: compound at 10 μM; for A4: inhibition of radioligand binding: [125I]-NDP-αMSH; for A4 radioligand binding inhibition: human melanocortin MC4 membranes
T7 construct: purchased Perkin Elmer Biosignal
T7 sequence (P32245 whole entry): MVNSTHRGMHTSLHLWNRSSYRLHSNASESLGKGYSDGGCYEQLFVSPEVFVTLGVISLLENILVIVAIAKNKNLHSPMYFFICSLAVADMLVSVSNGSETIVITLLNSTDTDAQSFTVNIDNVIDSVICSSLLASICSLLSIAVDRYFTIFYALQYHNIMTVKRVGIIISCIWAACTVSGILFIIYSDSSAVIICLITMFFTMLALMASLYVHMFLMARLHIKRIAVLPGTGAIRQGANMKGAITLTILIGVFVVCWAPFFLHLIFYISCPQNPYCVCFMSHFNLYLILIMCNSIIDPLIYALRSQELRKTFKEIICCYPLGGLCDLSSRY
Procedure, shortened: as §1

[8] = target: T8, Human melanin-concentrating hormone (MCH1) (Homo sapiens, UniProt Q99705); assay: Radioligand binding, human melanin-concentrating hormone MCH1 membranes, FlashPlate, [125I]-S36057; settings: compound at 10 μM; for A6 radioligand binding inhibition: human MCH1 membranes
T8 construct: purchased Perkin Elmer Biosignal
T8 sequence (Q99705 whole entry): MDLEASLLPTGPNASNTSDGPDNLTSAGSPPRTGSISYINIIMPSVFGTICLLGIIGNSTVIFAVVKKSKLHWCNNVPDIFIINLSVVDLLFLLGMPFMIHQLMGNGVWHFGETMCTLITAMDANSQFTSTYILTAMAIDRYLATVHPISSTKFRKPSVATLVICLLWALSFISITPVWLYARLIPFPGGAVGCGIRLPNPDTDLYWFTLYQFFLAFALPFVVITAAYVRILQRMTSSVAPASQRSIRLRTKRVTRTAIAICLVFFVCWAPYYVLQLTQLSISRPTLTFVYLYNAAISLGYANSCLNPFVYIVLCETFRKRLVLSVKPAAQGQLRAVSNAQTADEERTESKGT
Procedure, shortened: as §1

[9] = target: T9, Human neuropeptide Y (NPY-Y1) (Homo sapiens, UniProt P25929); assay: Radioligand binding, human neuropeptide Y NPY-Y1 membranes, FlashPlate, [125I]-PYY; settings: compound at 10 μM; for A9: inhibition of radioligand binding: [125I]-PYY
T9 construct: purchased Perkin Elmer Biosignal
T9 sequence (P25929 1-384): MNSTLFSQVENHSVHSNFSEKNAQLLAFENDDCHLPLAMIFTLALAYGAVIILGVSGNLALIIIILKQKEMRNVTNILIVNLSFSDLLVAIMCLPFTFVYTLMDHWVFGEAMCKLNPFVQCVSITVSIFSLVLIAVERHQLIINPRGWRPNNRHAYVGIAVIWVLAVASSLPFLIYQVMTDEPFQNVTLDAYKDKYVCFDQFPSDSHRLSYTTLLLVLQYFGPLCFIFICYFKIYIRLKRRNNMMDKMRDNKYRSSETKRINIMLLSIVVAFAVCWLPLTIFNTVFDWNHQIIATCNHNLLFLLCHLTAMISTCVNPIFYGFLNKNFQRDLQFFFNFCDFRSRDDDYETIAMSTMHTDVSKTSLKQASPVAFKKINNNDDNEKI
Procedure, shortened: as §1

[10] = target: T10, Human μ-opioid (MOP) (Homo sapiens, UniProt P35372); assay: Radioligand binding, human μ-opioid (MOP) membranes, FlashPlate, [3H]-Naloxone; settings: compound at 10 μM; for A7: inhibition of radioligand binding: [3H]-Naloxone; for A7 radioligand binding inhibition: human μ-opioid (MOP) membranes
T10 construct: purchased Perkin Elmer Biosignal
T10 sequence (P35372 whole entry): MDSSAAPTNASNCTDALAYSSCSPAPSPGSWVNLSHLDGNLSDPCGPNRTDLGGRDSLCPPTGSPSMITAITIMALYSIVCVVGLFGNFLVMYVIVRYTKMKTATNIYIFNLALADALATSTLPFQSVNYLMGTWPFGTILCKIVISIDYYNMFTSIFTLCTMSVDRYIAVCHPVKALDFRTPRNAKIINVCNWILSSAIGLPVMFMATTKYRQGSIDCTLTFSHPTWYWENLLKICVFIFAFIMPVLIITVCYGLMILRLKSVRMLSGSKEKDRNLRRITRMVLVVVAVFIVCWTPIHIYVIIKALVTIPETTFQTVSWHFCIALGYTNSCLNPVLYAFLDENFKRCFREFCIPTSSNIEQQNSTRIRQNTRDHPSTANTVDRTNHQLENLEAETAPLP
Procedure, shortened: as §1

[11] = target: T11, Human κ-Opioid (KOP) (Homo sapiens, UniProt P41145); assay: Radioligand binding, human κ-opioid (KOP) membranes, filtration, [3H]-Diprenorphine; settings: compound at 10 μM; for A2: inhibition of radioligand binding: [3H]-Diprenorphine; for A2 radioligand binding inhibition: human κ-opioid (KOP) membranes
T11 construct: purchased Perkin Elmer Biosignal
T11 sequence (P41145 whole entry): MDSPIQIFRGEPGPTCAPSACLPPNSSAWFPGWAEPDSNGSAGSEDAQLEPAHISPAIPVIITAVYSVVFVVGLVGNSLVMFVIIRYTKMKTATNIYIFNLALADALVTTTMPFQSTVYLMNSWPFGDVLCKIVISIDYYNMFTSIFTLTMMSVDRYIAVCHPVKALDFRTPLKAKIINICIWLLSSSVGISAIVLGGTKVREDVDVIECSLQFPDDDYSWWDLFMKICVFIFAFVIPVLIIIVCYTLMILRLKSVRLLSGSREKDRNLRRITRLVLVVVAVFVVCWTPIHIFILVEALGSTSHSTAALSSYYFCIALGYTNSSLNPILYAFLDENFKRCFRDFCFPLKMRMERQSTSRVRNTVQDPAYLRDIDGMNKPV
Procedure, shortened: as §2

T1 sequence (P33032 whole entry): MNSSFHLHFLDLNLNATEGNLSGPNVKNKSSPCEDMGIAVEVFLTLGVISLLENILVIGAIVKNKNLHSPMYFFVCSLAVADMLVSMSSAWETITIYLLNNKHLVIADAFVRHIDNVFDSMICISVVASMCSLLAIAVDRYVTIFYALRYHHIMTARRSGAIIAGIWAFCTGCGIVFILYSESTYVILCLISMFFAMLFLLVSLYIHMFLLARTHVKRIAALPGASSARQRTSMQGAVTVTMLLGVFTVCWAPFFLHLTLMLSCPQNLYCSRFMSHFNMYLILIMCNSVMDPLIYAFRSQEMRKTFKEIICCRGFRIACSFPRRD

With COCC1OC(OCc2ccc3ccccc3c2)C(NC(=O)CCCNC(=N)N)C(OCc2ccc(Cl)cc2)C1O (stereo not shown) [compound 240] the “A5: inhibition of radioligand binding” value ([1]; FlashPlate) was “+ (“+” indicates greater than 50% inhibition at 10 μM)”, the “A10: inhibition of radioligand binding” value ([2]; FlashPlate) was “+ (“+” indicates greater than 50% inhibition at 10 μM)” and the “A1: inhibition of radioligand binding” value ([3]; FlashPlate) was “− (“−” indicates less than 50% inhibition at 10 μM)”. For the same molecule, the “A3: inhibition of radioligand binding” value ([4]; FlashPlate) was “+ (“+” indicates greater than 50% inhibition at 10 μM)”, the “A8: inhibition of radioligand binding” value ([5]; filtration) was “+ (“+” indicates greater than 50% inhibition at 10 μM)” and the “A11: inhibition of radioligand binding” value ([6]; FlashPlate) was “− (“−” indicates less than 50% inhibition at 10 μM)”. For the same molecule, the “A4: inhibition of radioligand binding” value ([7]; FlashPlate) was “+ (“+” indicates greater than 50% inhibition at 10 μM)”, the “A6: inhibition of radioligand binding” value ([8]; [125I]-S36057, FlashPlate) was “+ (“+” indicates greater than 50% inhibition at 10 μM)” and the “A9: inhibition of radioligand binding” value ([9]; FlashPlate) was “− (“−” indicates less than 50% inhibition at 10 μM)”. The “A7: inhibition of radioligand binding” value ([10]; FlashPlate) was “+ (“+” indicates greater than 50% inhibition at 10 μM)” and the “A2: inhibition of radioligand binding” value ([11]; filtration) was “+ (“+” indicates greater than 50% inhibition at 10 μM)”.
In the case of CO[C@H]1[C@H](O)[C@@H](COCc2ccccc2)OC(OCc2ccc(-c3ccccc3)cc2)[C@@H]1NC(=O)CNC(=N)N (stereo partly shown) [compound 58], the “A5 radioligand binding inhibition” value [1] is reported as “+ (“+” indicates greater than 50% inhibition at 10 μM)”, the “A10 radioligand binding inhibition” value ([2]; human ORL1 membranes) is reported as “− (“−” indicates less than 50% inhibition at 10 μM)” and the “A1 radioligand binding inhibition” value [3] is reported as “− (“−” indicates less than 50% inhibition at 10 μM)”. For the same molecule, the “A3 radioligand binding inhibition” value [4] was “− (“−” indicates less than 50% inhibition at 10 μM)”, the “A8 radioligand binding inhibition” value [5] was “+ (“+” indicates greater than 50% inhibition at 10 μM)” and the “A11 radioligand binding inhibition” value [6] was “− (“−” indicates less than 50% inhibition at 10 μM)”. The “A4 radioligand binding inhibition” value [7] was “+ (“+” indicates greater than 50% inhibition at 10 μM)”, the “A6 radioligand binding inhibition” value [8] was “− (“−” indicates less than 50% inhibition at 10 μM)” and the “A9 radioligand binding inhibition” value ([9]; human NPY-Y1 membranes) was “− (“−” indicates less than 50% inhibition at 10 μM)”. For the same molecule, the “A7 radioligand binding inhibition” value [10] was “+ (“+” indicates greater than 50% inhibition at 10 μM)” and the “A2 radioligand binding inhibition” value [11] was “+ (“+” indicates greater than 50% inhibition at 10 μM)”.
With NCCCC(=O)NC1C(OCc2ccc3ccccc3c2)OC(COCc2ccccc2)C(O)C1OCc1ccc(Cl)cc1 (stereo not shown) [compound 391] the “A5: inhibition of radioligand binding” value ([1]; human MC5 membranes, 10 µM) was “− (“−” indicates less than 50% inhibition at 10 μM)”, the “A10: inhibition of radioligand binding” value ([2]; human ORL1 membranes, 10 µM) was “− (“−” indicates less than 50% inhibition at 10 μM)” and the “A1: inhibition of radioligand binding” value ([3]; human DOP membranes) was “− (“−” indicates less than 50% inhibition at 10 μM)”. The “A3: inhibition of radioligand binding” value ([4]; human MC3 membranes) was “− (“−” indicates less than 50% inhibition at 10 μM)”, the “A8: inhibition of radioligand binding” value ([5]; human NK1 membranes) was “+ (“+” indicates greater than 50% inhibition at 10 μM)” and the “A11: inhibition of radioligand binding” value ([6]; mouse mUR2 membranes) was “− (“−” indicates less than 50% inhibition at 10 μM)”. For the same molecule, the “A4: inhibition of radioligand binding” value ([7]; human MC4 membranes, 10 µM) was “+ (“+” indicates greater than 50% inhibition at 10 μM)”, the “A6: inhibition of radioligand binding” value ([8]; [125I]-S36057, human MCH1 membranes, 10 µM) was “− (“−” indicates less than 50% inhibition at 10 μM)” and the “A9: inhibition of radioligand binding” value ([9]; human NPY-Y1 membranes) was “− (“−” indicates less than 50% inhibition at 10 μM)”. The “A7: inhibition of radioligand binding” value ([10]; human MOP membranes, 10 µM) was “− (“−” indicates less than 50% inhibition at 10 μM)” and the “A2: inhibition of radioligand binding” value ([11]; human KOP membranes) was “− (“−” indicates less than 50% inhibition at 10 μM)”.
With COC[C@H]1OC(OCCc2ccccc2)[C@H](NC(=O)CCCN)[C@@H](OCc2ccccc2)[C@@H]1O (stereo partly shown) [compound 47] the “A5 radioligand binding inhibition” value [1] was “− (“−” indicates less than 50% inhibition at 10 μM)”, the “A10 radioligand binding inhibition” value ([2]; human ORL1 membranes) was “− (“−” indicates less than 50% inhibition at 10 μM)” and the “A1 radioligand binding inhibition” value [3] was “− (“−” indicates less than 50% inhibition at 10 μM)”. For the same molecule, the “A3 radioligand binding inhibition” value [4] was “− (“−” indicates less than 50% inhibition at 10 μM)”, the “A8 radioligand binding inhibition” value [5] was “+ (“+” indicates greater than 50% inhibition at 10 μM)” and the “A11 radioligand binding inhibition” value [6] was “− (“−” indicates less than 50% inhibition at 10 μM)”. The “A4 radioligand binding inhibition” value [7] was “− (“−” indicates less than 50% inhibition at 10 μM)”, the “A6 radioligand binding inhibition” value [8] was “− (“−” indicates less than 50% inhibition at 10 μM)” and the “A9 radioligand binding inhibition” value ([9]; human NPY-Y1 membranes) was “− (“−” indicates less than 50% inhibition at 10 μM)”. For the same molecule, the “A7 radioligand binding inhibition” value [10] was “− (“−” indicates less than 50% inhibition at 10 μM)” and the “A2 radioligand binding inhibition” value [11] was “− (“−” indicates less than 50% inhibition at 10 μM)”.
In the case of COC[C@H]1OC(OCCc2ccccc2)[C@H](NC(=O)CCNC(=N)N)[C@@H](OCc2ccc(-c3ccccc3)cc2)[C@@H]1O (stereo partly shown) [compound 41], the “A5 radioligand binding inhibition” value [1] is reported as “+ (“+” indicates greater than 50% inhibition at 10 μM)”, the “A10 radioligand binding inhibition” value ([2]; human ORL1 membranes) is reported as “− (“−” indicates less than 50% inhibition at 10 μM)” and the “A1 radioligand binding inhibition” value [3] is reported as “− (“−” indicates less than 50% inhibition at 10 μM)”. The “A3 radioligand binding inhibition” value [4] was “− (“−” indicates less than 50% inhibition at 10 μM)”, the “A8 radioligand binding inhibition” value [5] was “+ (“+” indicates greater than 50% inhibition at 10 μM)” and the “A11 radioligand binding inhibition” value [6] was “− (“−” indicates less than 50% inhibition at 10 μM)”. For the same molecule, the “A4 radioligand binding inhibition” value [7] was “+ (“+” indicates greater than 50% inhibition at 10 μM)”, the “A6 radioligand binding inhibition” value [8] was “+ (“+” indicates greater than 50% inhibition at 10 μM)” and the “A9 radioligand binding inhibition” value ([9]; human NPY-Y1 membranes) was “− (“−” indicates less than 50% inhibition at 10 μM)”. The “A7 radioligand binding inhibition” value [10] was “− (“−” indicates less than 50% inhibition at 10 μM)” and the “A2 radioligand binding inhibition” value [11] was “− (“−” indicates less than 50% inhibition at 10 μM)”.
